According to ChEMBL document CHEMBL1201862, “PubChem BioAssay data set” (2004):
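Each compound was tested at five concentrations against cells in 96-well plates for 48 hours. GI50: concentration for 50% inhibition of growth.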 The source made the active and inactive calls. Cut-off read from the data, not from the text of the source: active = GI50 up to about 1.1 µM and inactive = higher.

Assays:
Assay in all cases: NCI-60 cell line screen, 48 h
786-0 = system: 786-0
A498 = system: A498
A549 = system: A549
ACHN = system: ACHN
CAKI-1 = system: CAKI-1
CCRF-CEM = system: CCRF-CEM
DLD-1 = system: DLD-1
DMS-114 = system: DMS-114
DMS-273 = system: DMS-273
EKVX = system: EKVX
HCC 2998 = system: HCC 2998
HCT-116 = system: HCT-116
HCT-15 = system: HCT-15
HL-60 = system: HL-60
HOP-62 = system: HOP-62
HT-29 = system: HT-29
IGROV-1 = system: IGROV-1
K562 = system: K562
KM-20L2 = system: KM-20L2
KM12 = system: KM12
LXFL 529 = system: LXFL 529
M14 = system: M14
M19-MEL = system: M19-MEL
MOLT-4 = system: MOLT-4
Malme-3M = system: Malme-3M
NCI-H226 = system: NCI-H226
NCI-H23 = system: NCI-H23
NCI-H460 = system: NCI-H460
OVCAR-3 = system: OVCAR-3
OVCAR-4 = system: OVCAR-4
OVCAR-5 = system: OVCAR-5
OVCAR-8 = system: OVCAR-8
RPMI-8226 = system: RPMI-8226
RXF 393 = system: RXF 393
RXF 631 = system: RXF 631
SF-295 = system: SF-295
SF-539 = system: SF-539
SK-MEL-28 = system: SK-MEL-28
SK-MEL-2 = system: SK-MEL-2
SK-MEL-5 = system: SK-MEL-5
SK-OV-3 = system: SK-OV-3
SNB-75 = system: SNB-75
SNB-78 = system: SNB-78
SW-620 = system: SW-620
TK-10 = system: TK-10
U-251 = system: U-251
UACC-257 = system: UACC-257
UACC-62 = system: UACC-62
UO-31 = system: UO-31
XF498 = system: XF498
COLO 205 = system: COLO 205
HOP-18 = system: HOP-18
HOP-92 = system: HOP-92
LOX IMVI = system: LOX IMVI
NCI-H522 = system: NCI-H522
SF-268 = system: SF-268
SN12C = system: SN12C
SNB-19 = system: SNB-19
SR = system: SR

Measured: GI50

C[C@]12CCC(=O)C=C1CC[C@@H]1C2CC[C@]2(C)Nc3c(cnn3-c3ccccc3)CC12 (stereo partly drawn)
> 100 µM: HCT-15
inactive: 786-0 > 100 µM | A498 > 100 µM | A549 > 100 µM | ACHN > 100 µM | CAKI-1 > 100 µM | CCRF-CEM > 100 µM | DLD-1 > 100 µM | DMS-114 > 100 µM | DMS-273 > 100 µM | EKVX > 100 µM | HCC 2998 > 100 µM | HCT-116 > 100 µM | HL-60 > 100 µM | HOP-62 > 100 µM | HT-29 > 100 µM | IGROV-1 > 100 µM | K562 > 100 µM | KM-20L2 > 100 µM | KM12 > 10 µM | LXFL 529 > 100 µM | M14 > 100 µM | M19-MEL > 100 µM | MOLT-4 > 100 µM | Malme-3M > 100 µM | NCI-H226 > 100 µM | NCI-H23 > 100 µM | NCI-H460 > 100 µM | OVCAR-3 > 10 µM | OVCAR-4 > 100 µM | OVCAR-5 > 100 µM | OVCAR-8 > 100 µM | RPMI-8226 > 100 µM | RXF 393 > 100 µM | RXF 631 96.8 µM | SF-295 > 10 µM | SF-539 > 100 µM | SK-MEL-28 > 100 µM | SK-MEL-2 > 100 µM | SK-MEL-5 > 100 µM | SK-OV-3 > 100 µM | SNB-75 39.1 µM | SNB-78 > 100 µM | SW-620 > 100 µM | TK-10 > 100 µM | U-251 > 100 µM | UACC-257 > 100 µM | UACC-62 > 100 µM | UO-31 > 100 µM | XF498 > 100 µM

O=c1nc(NC(c2ccccc2)(c2ccccc2)c2ccccc2)ccn1CCCl
35.4 µM: HCT-15
inactive: 786-0 18.1 µM | A498 64.7 µM | A549 30 µM | ACHN 27.8 µM | COLO 205 25.6 µM | DLD-1 35.3 µM | DMS-114 14.5 µM | EKVX 26.9 µM | HCC 2998 14.9 µM | HCT-116 18.8 µM | HL-60 22.8 µM | HOP-18 25.5 µM | HOP-62 21.5 µM | HOP-92 14.2 µM | HT-29 17 µM | IGROV-1 19.3 µM | K562 21.8 µM | KM-20L2 16.4 µM | KM12 17.1 µM | LOX IMVI 17.1 µM | LXFL 529 13.5 µM | M19-MEL 18.8 µM | MOLT-4 16.2 µM | Malme-3M 14.6 µM | NCI-H226 21.2 µM | NCI-H23 23.2 µM | NCI-H460 19.3 µM | NCI-H522 22.8 µM | OVCAR-3 13.2 µM | OVCAR-4 20.6 µM | OVCAR-5 27.5 µM | OVCAR-8 16.2 µM | RPMI-8226 17.1 µM | RXF 393 16.1 µM | RXF 631 27.3 µM | SF-268 17.2 µM | SF-295 20.6 µM | SF-539 17.8 µM | SK-MEL-28 15 µM | SK-MEL-2 15.8 µM | SN12C 17.9 µM | SNB-19 15.1 µM | SNB-75 17.6 µM | SNB-78 29.2 µM | SR 20.3 µM | SW-620 24.1 µM | TK-10 27.7 µM | U-251 15.3 µM | UACC-257 > 10 µM | UO-31 47.6 µM | XF498 14.1 µM

COc1ccc(CCn2cncn2)cc1
> 100 µM: HCT-15
inactive: A549 > 100 µM | ACHN > 100 µM | CCRF-CEM > 100 µM | COLO 205 > 100 µM | DLD-1 > 100 µM | DMS-114 > 100 µM | DMS-273 > 100 µM | EKVX > 100 µM | HCC 2998 > 100 µM | HCT-116 > 100 µM | HL-60 > 100 µM | HOP-62 > 100 µM | HOP-92 > 100 µM | HT-29 > 100 µM | IGROV-1 > 100 µM | K562 > 100 µM | KM-20L2 > 100 µM | KM12 > 100 µM | LXFL 529 > 100 µM | M14 > 100 µM | M19-MEL > 100 µM | MOLT-4 > 100 µM | NCI-H226 > 100 µM | NCI-H23 > 100 µM | NCI-H460 > 100 µM | NCI-H522 > 100 µM | OVCAR-3 > 100 µM | OVCAR-4 > 100 µM | OVCAR-5 > 100 µM | RXF 631 > 100 µM | SF-268 > 100 µM | SF-295 > 100 µM | SF-539 > 100 µM | SK-MEL-28 > 100 µM | SK-MEL-5 > 100 µM | SK-OV-3 > 100 µM | SN12C > 100 µM | SNB-19 > 100 µM | SNB-75 > 100 µM | SNB-78 > 100 µM | SR > 100 µM | SW-620 > 100 µM | TK-10 > 100 µM | U-251 > 100 µM | UACC-257 > 100 µM | UACC-62 > 100 µM | UO-31 > 100 µM

CO/C=C(\Br)c1ccc2c(c1)OCO2
inactive: 786-0 > 100 µM | A498 > 100 µM | A549 > 100 µM | ACHN > 100 µM | CAKI-1 > 100 µM | CCRF-CEM > 100 µM | DMS-114 > 100 µM | DMS-273 > 100 µM | EKVX > 100 µM | HCT-116 > 100 µM | HL-60 > 100 µM | HOP-62 > 100 µM | HOP-92 > 100 µM | IGROV-1 > 100 µM | K562 > 100 µM | KM12 > 100 µM | LXFL 529 > 100 µM | M14 > 100 µM | M19-MEL > 100 µM | MOLT-4 73.5 µM | Malme-3M > 100 µM | NCI-H226 > 100 µM | NCI-H23 > 100 µM | NCI-H522 > 100 µM | OVCAR-3 > 100 µM | OVCAR-4 > 100 µM | OVCAR-5 > 100 µM | OVCAR-8 > 100 µM | RXF 393 > 100 µM | RXF 631 > 100 µM | SF-268 > 100 µM | SF-295 > 100 µM | SF-539 > 100 µM | SK-MEL-28 > 100 µM | SK-MEL-2 > 100 µM | SK-OV-3 > 100 µM | SN12C > 100 µM | SNB-19 > 100 µM | SNB-75 > 100 µM | SNB-78 > 100 µM | SR > 100 µM | SW-620 > 100 µM | TK-10 > 100 µM | U-251 > 100 µM | UACC-257 > 100 µM | UACC-62 64.9 µM | UO-31 > 100 µM | XF498 > 100 µM
